This note sets out measurements from patent US20250049776A1, “AUTOPHAGY INDUCING COMPOUNDS AND USES THEREOF, IN PARTICULAR FOR A SYSTEMIC TREATMENT OF DISEASES AND CONDITIONS” (Samsara Therapeutics Inc., priority 2021, published 2025).

For experiment [1], the system named is Human osteosarcoma U20S cells. As to the kind of experiment: Assay to measure lysosome and autolysosome formation (acidic vesicle formation, LysoView/LysoTracker staining). As to conditions: for acidic vesicle formation relative to a DMSO-treated control / increase in acidic vesicle formation: U20S cells; for acidic vesicle formation relative to a DMSO-treated control: concentration of 10 μM, 24 hours; for increase in acidic vesicle formation: relative to DMSO-treated control (10 μM); for activation at 0.8 µM: Homo sapiens, U2OS cells, concentration of 0.8 μM, read-out: Activity (percentage increase in acidic vesicle formation over the DMSO-treated control), Table 2. In kind it is cell-based. Summed up:
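U2OS cells treated with compounds in DMSO for 24 h, then stained 45 min at 37 °C with 1× LysoView 633 or 50 nM LysoTracker Deep Red, with Hoechst nuclear counterstain. Live-cell fluorescence imaging at 37 °C; acidic vesicle formation judged against DMSO-treated control.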

Experiment [2] has as its system U2OS cell line stabling expressing RFP-eGFP-hLC3b. The experiment in a line: Tandem reporter assay (autophagic flux, RFP-only puncta). In kind it is cell-based. As to conditions: Homo sapiens, RFP-only puncta as percentage of DMSO-treated control, 24 hours; for activity at 1 µM: read-out: Autolysosome % DMSO activity (compound concentration of 1 μM); for activity at 10 µM: read-out: Autolysosome % DMSO activity (compound concentration of 10 μM). On the procedure: Selected compounds of this invention were also assessed for their ability to stimulate autophagy using a U20S cell line stabling expressing RFP-eGFP-hLC3b (a tandem reporter cell line). During the process of autophagy, the cargo to be degraded is first enveloped by organelles called autophagosomes. These autophagosomes then fuse with lysosomes, causing them to become acidified and their digestive enzymes to become activated. The term “autophagic flux” is used to represent the dynamic process of autophagy: autophagic flux refers to the whole process of autophagy, including autophagosome formation, maturation, fusion with lysosomes, subsequent breakdown and the release of macromolecules back into the cytosol (Zhang X J, Chen S, Huang K X, Le W D. Why should autophagic flux be assessed? Acta Pharmacol Sin. 2013 May; 34(5): 595-9. doi: 10.1038/aps.2012.184. Epub 2013 Mar. 11). Compounds that stimulate autophagic flux stimulate the dynamic process of autophagy (the whole process of autophagy).
LC3b is a protein found in the membrane of autophagosomes which has been used to generate genetic reporters of autophagy in cells. In these systems a tandem fusion of LC3b is engineered with two fluorescent proteins of different wavelengths: one which is acid sensitive (for example eGFP, which fluoresces green) and the other which is acid insensitive (for example RFP, which fluoresces red). Cells expressing RFP-eGFP-hLC3b can be examined using fluorescent microscopy: the autophagosomes present will fluoresce in both channels (either yellow in an overlay of both channels or puncta that are present in both the individual red and green channels) but the autolysosomes present will fluoresce in the RFP (red) channel only. Using a fluorescent microscope, the number of autophagosomes and autolysosomes can be counted, allowing for the monitoring of both the induction of autophagy (total puncta count) and the rate of autophagic flux (ratio of red-only to red-and-green puncta). The influence of small molecules on autophagy induction and flux can be assessed using this system by comparison to a non-treated control.
Representative Procedure: Human osteosarcoma U2OS cells stably expressing RFP-eGFP-hLC3b were seeded (10,000 cells/well) into a 96-well glass-bottom plate (Cell Carrier Ultra, Perkin Elmer) in DMEM Glutamax media (Gibco) supplemented with 10% Fetal Bovine Serum (FBS) and antibiotics (100 u/ml penicillin, 100 μg/ml streptomycin, Invitrogen), then incubated overnight in a humified atmosphere at 37° C. and 5% CO2. The cells were then treated with the compounds of interest, dissolved in DMSO, in a duplicated 5- or 10-point dose-response. 8 wells were treated with an equivalent volume of DMSO, 4 with 0.3 μM torin-1 as a positive control (MCE) and 4 wells with 0.4 μM torin-1 plus 0.2 μM bafilomycin (MCE) as a control for flux inhibition. The cells were returned to the incubator and the treatment continued for 24 hours. After treatment, the media was aspirated off and the cells fixed with a solution of 4% formaldehyde+1% glutaraldehyde (Sigma) in dPBS (plus magnesium and calcium, Gibco).
Fixation was allowed to proceed for 15 minutes at room temperature then the fixative solution discarded and replaced with PBS (Gibco) plus Hoescht 33342 ([…], Sigma). After 30 minutes the plates were imaged on an Opera Phenix confocal microscope (Perkin-Elmer) using a 40× water objective, collecting using DAPI, mCherry and GFP channels. Cells were detected based upon the staining of their nuclei with DAPI using the Harmony image analysis software (Perkin-Elmer) and the number of autophagosomes (GFP and RFP puncta) and autolysosomes (RFP only puncta) per cell were counted using the spot picking function within the software.

For the compound `CC(C)N(C(=O)c1csc(-c2cnn(-c3ccncc3)c2)n1)C1CCNCC1` [Compound 322, N-(piperidin-4-yl)-N-(propan-2-yl)-2-[1-(pyridin-4-yl)-1H-pyrazol-4-yl]-1,3-thiazole-4-carboxamide], in experiment [1], the “acidic vesicle formation relative to a DMSO-treated control” value is listed as “only a slight increase” and the “increase in acidic vesicle formation” value is given as “only a slight increase”.

Consider `CC(C)N(C(=O)c1csc(-c2cnn(-c3cccnn3)c2)n1)C1CCNCC1` [Compound 323, N-(piperidin-4-yl)-N-(propan-2-yl)-2-[1-(pyridazin-3-yl)-1H-pyrazol-4-yl]-1,3-thiazole-4-carboxamide], for which, in experiment [1], the activation at 0.8 µM lay in the range of 30 to 50% and the “increase in acidic vesicle formation” value was “only a slight increase”. For the compound `O=C(c1csc(-c2cnn(-c3ccccc3)c2)n1)N1C[C@H]2C[C@@H]1CN2` [Compound 326, (1R,4R)-2-[2-(1-phenyl-1H-pyrazol-4-yl)-1,3-thiazole-4-carbonyl]-2,5-diazabicyclo[2.2.1]heptane], the activation at 0.8 µM in experiment [1] lay within 50 to 100%. Consider `O=C(NC1C[C@@H]2C[C@H]1CN2)c1csc(-c2cnn(-c3ccccc3)c2)n1` (stereo partly drawn) [Compound 327, N-[(1S,4S)-2-azabicyclo[2.2.1]heptan-5-yl]-2-(1-phenyl-1H-pyrazol-4-yl)-1,3-thiazole-4-carboxamide], for which, in experiment [1], the activation at 0.8 µM was in the range of 30 to 50%.

For the compound `CC(C)N(C(=O)c1csc(-c2cnn(-c3ncccn3)c2)n1)C1CCNCC1` [Compound 329, N-(piperidin-4-yl)-N-(propan-2-yl)-2-[1-(pyrimidin-2-yl)-1H-pyrazol-4-yl]-1,3-thiazole-4-carboxamide], the “increase in acidic vesicle formation” value in experiment [1] is recorded as “only a slight increase”.

`CC(C)N(C(=O)c1csc(-c2cnn(-c3cccnn3)c2)n1)[C@@H]1CCNC1` [Compound 332, N-(propan-2-yl)-2-[1-(pyridazin-3-yl)-1H-pyrazol-4-yl]-N-[(3R)-pyrrolidin-3-yl]-1,3-thiazole-4-carboxamide]: in experiment [1], the “acidic vesicle formation relative to a DMSO-treated control” value was “only a slight increase” and the “increase in acidic vesicle formation” value is recorded as “only a slight increase”. Turning to `CC(C)N(C(=O)c1cc(-c2cnn(-c3ccccc3)c2)c[nH]1)[C@@H]1CCNC1` [Compound 334, 4-(1-phenyl-1H-pyrazol-4-yl)-N-(propan-2-yl)-N-[(3R)-pyrrolidin-3-yl]-1H-pyrrole-2-carboxamide], in experiment [1], the activation at 0.8 µM lay in the range of 30 to 50% and the “increase in acidic vesicle formation” value is listed as “only a slight increase”. With `CC(C)N(C(=O)c1nc(-c2cnn(-c3ccccc3)c2)c[nH]1)[C@@H]1CCNC1` [Compound 345, 5-(1-phenyl-1H-pyrazol-4-yl)-N-(propan-2-yl)-N-[(3R)-pyrrolidin-3-yl]-1H-imidazole-2-carboxamide], in experiment [2], the activity at 1 µM amounted to 116% and the activity at 10 µM turned out to be 72%. With `CN(C(=O)c1cnc(-c2cnn(-c3ccccc3)c2)[nH]1)[C@H]1CCNC1` [Compound 358, N-methyl-2-(1-phenyl-1H-pyrazol-4-yl)-N-[(3S)-pyrrolidin-3-yl]-1H-imidazole-4-carboxamide], in experiment [2], the activity at 1 µM is 102% and the activity at 10 µM is 103%. Consider `CN(C(=O)c1nc(-c2cnn(-c3ccccc3)c2)c[nH]1)[C@H]1CCNC1` [Compound 359, N-methyl-5-(1-phenyl-1H-pyrazol-4-yl)-N-[(3S)-pyrrolidin-3-yl]-1H-imidazole-2-carboxamide], for which, in experiment [2], the activity at 1 µM came to 113% and the activity at 10 µM turned out to be 144%. For the compound `CN(C(=O)c1coc(-c2cnn(-c3ccccc3)c2)n1)[C@H]1CCNC1` [Compound 360, N-methyl-2-(1-phenyl-1H-pyrazol-4-yl)-N-[(3S)-pyrrolidin-3-yl]-1,3-oxazole-4-carboxamide], in experiment [2], the activity at 1 µM amounted to 113% and the activity at 10 µM amounted to 214%. For `CN(C(=O)c1csc(-c2cnn(-c3ccccc3)n2)n1)[C@@H]1CCNC1` [Compound 363, N-methyl-2-(2-phenyl-2H-1,2,3-triazol-4-yl)-N-[(3R)-pyrrolidin-3-yl]-1,3-thiazole-4-carboxamide], the activity at 1 µM in experiment [2] turned out to be 171%. Same read-out and setting: then `CCN(C(=O)c1csc(-c2cnn(-c3ccccc3)n2)n1)[C@H]1CCNC1` [Compound 364, N-ethyl-2-(2-phenyl-2H-1,2,3-triazol-4-yl)-N-[(3S)-pyrrolidin-3-yl]-1,3-thiazole-4-carboxamide], with 166%; and `CCN(C(=O)c1csc(-c2cnn(-c3ccccc3)n2)n1)[C@@H]1CCNC1` [Compound 365, N-ethyl-2-(2-phenyl-2H-1,2,3-triazol-4-yl)-N-[(3R)-pyrrolidin-3-yl]-1,3-thiazole-4-carboxamide], with 183%.

On to `CCN(C(=O)c1csc(-c2cnn(-c3ccccn3)c2)n1)[C@H]1CCNC1` [Compound 367, N-ethyl-2-[1-(pyridin-2-yl)-1H-pyrazol-4-yl]-N-[(3S)-pyrrolidin-3-yl]-1,3-thiazole-4-carboxamide], for which, in experiment [2], the activity at 1 µM was 114% and the activity at 10 µM was found to be 215%.

As for `O=C(c1csc(-c2cnn(-c3ccccc3OC(F)(F)F)c2)n1)N1C[C@H]2C[C@@H]1CN2` [Compound 376, (1R,4R)-2-(2-{1-[2-(trifluoromethoxy)phenyl]-1H-pyrazol-4-yl}-1,3-thiazole-4-carbonyl)-2,5-diazabicyclo[2.2.1]heptane], in experiment [2], the activity at 1 µM came to 176% and the activity at 10 µM worked out at 260%. On to `O=C(c1coc(-c2cnn(-c3ccccc3OC(F)(F)F)c2)n1)N1C[C@H]2C[C@@H]1CN2` [Compound 378, (1R,4R)-2-(2-{1-[2-(trifluoromethoxy)phenyl]-1H-pyrazol-4-yl}-1,3-oxazole-4-carbonyl)-2,5-diazabicyclo[2.2.1]heptane], for which, in experiment [2], the activity at 1 µM is 122% and the activity at 10 µM stood at 199%. Turning to `CC(C)N(C(=O)c1coc(-c2cnn(-c3ccccc3)c2)n1)[C@H]1CCNC1` [Compound 381, 2-(1-phenyl-1H-pyrazol-4-yl)-N-(propan-2-yl)-N-[(3S)-pyrrolidin-3-yl]-1,3-oxazole-4-carboxamide], in experiment [2], the activity at 1 µM amounted to 118% and the activity at 10 µM turned out to be 179%.

Consider `CC(C)N(C(=O)c1csc(-c2cnn(-c3ccccc3)c2)n1)C1CCNCC1(F)F` (stereo not drawn) [Compound 382, N-(3,3-difluoropiperidin-4-yl)-2-(1-phenyl-1H-pyrazol-4-yl)-N-(propan-2-yl)-1,3-thiazole-4-carboxamide], for which, in experiment [2], the activity at 1 µM came out at 96% and the activity at 10 µM came out at 108%. In the case of `CC(C)N(C(=O)c1csc(-c2cnn(-c3ccccc3)c2)n1)C1CCNCC1F` (stereo not drawn) [Compound 383, N-(3-fluoropiperidin-4-yl)-2-(1-phenyl-1H-pyrazol-4-yl)-N-(propan-2-yl)-1,3-thiazole-4-carboxamide], in experiment [2], the activity at 1 µM was 98% and the activity at 10 µM amounted to 194%. Regarding `CC(C)N(C(=O)c1csc(-c2cnn(C)c2)n1)[C@H]1CCNC1` [Compound 389, 2-(1-methyl-1H-pyrazol-4-yl)-N-(propan-2-yl)-N-[(3S)-pyrrolidin-3-yl]-1,3-thiazole-4-carboxamide], in experiment [2], the activity at 1 µM was found to be 101% and the activity at 10 µM amounted to 108%.
